According to ChEMBL document CHEMBL4602659, “β,β-Dimethylacrylshikonin Induces Apoptosis in Melanoma Cell Lines by NOXA Upregulation” (J Nat Prod, 2020):
Calls of active or inactive are those of the source. The calls are words filed in the database; no cut-off is given here.

Columns and labels:
WM793 [1] = assay: Induction of apoptosis in human WM793 cells assessed as late apoptotic cells at IC50 concentration after 24 hrs by Annexin V/SYTOX Green based flow cytometric analysis (reference value: 0.66%); type: functional
WM164 [2] = assay: Induction of apoptosis in human WM164 cells assessed as necrotic cells at IC50 concentration after 24 hrs by Annexin V/SYTOX Green based flow cytometric analysis (reference value: 0.85%); type: functional
WM793 [3] = assay: Induction of apoptosis in human WM793 cells assessed as up regulation of NOXA at IC50 concentration after 6 to 24 hrs by RT-qPCR analysis; type: functional, cell-based
MUGMel1 [4] = assay: Cytotoxicity against human MUGMel1 cells assessed as reduction in cell viability after 48 hrs by EZ4U reagent based spectrophotometric method; type: functional; details: MUGMel1, 48 h
WM164 [5] = assay: Antitumour activity against human WM164 cells xenografted in NU(NCr)-Foxn1 mouse assessed as increase in caspase -activity at 1 to 4 ug/g administered for three consecutive days with 1 day interval for four cycle by hematoxylin and eosin staining based microscopic analysis; type: functional, cell-based
SBcl2 [6] = assay: Induction of apoptosis in human SBcl2 cells assessed as effect on BAD protein expression at IC50 concentration after 24 hrs by Western blot analysis; type: functional, cell-based
MUGMel1 [7] = assay: Induction of apoptosis in human MUGMel1 cells assessed as necrotic cells at IC50 concentration after 6 hrs by Annexin V/SYTOX Green based flow cytometric analysis (reference value: 0.39%); type: functional
WM793 [8] = assay: Induction of apoptosis in human WM793 cells assessed as late apoptotic cells at IC50 concentration after 6 hrs by Annexin V/SYTOX Green based flow cytometric analysis (reference value: 0.71%); type: functional
SBcl2 [9] = assay: Induction of apoptosis in human SBcl2 cells assessed as effect on PUMA protein expression at IC50 concentration after 24 hrs by Western blot analysis; type: functional, cell-based
SBcl2 [10] = assay: Induction of apoptosis in human SBcl2 cells assessed as late apoptotic cells at IC50 concentration after 24 hrs by Annexin V/SYTOX Green based flow cytometric analysis (reference value: 22.96%); type: functional
MUGMel2 [11] = assay: Cytotoxicity against human MUGMel2 cells harboring NRAS pQ61K mutant assessed as reduction in cell viability after 72 hrs by EZ4U reagent based spectrophotometric method; type: functional; details: MUGMel2, 72 h
MUGMel2 [12] = assay: Induction of apoptosis in human MUGMel2 cells assessed as increase in caspase -3 activity at IC50 concentration after 24 hrs by Alexa Fluor 647 antibody based flow cytometric analysis; type: functional, cell-based
SBcl2 [13] = assay: Induction of apoptosis in human SBcl2 cells treated with scrambled si-RNA assessed as caspase -activity at IC50 concentration after 24 hrs by Western blot analysis; type: functional, cell-based
WM793 [14] = assay: Cytotoxicity against human WM793 cells harboring BRAF V600E mutant assessed as reduction in cell viability after 48 hrs by EZ4U reagent based spectrophotometric method; type: functional; details: WM793, 48 h
MUGMel1 [15] = assay: Induction of apoptosis in human MUGMel1 cells assessed as effect on PUMA protein expression at IC50 concentration after 24 hrs by Western blot analysis; type: functional, cell-based
WM164 [16] = assay: Induction of apoptosis in human WM164 cells assessed as effect on PUMA protein expression at IC50 concentration after 24 hrs by Western blot analysis; type: functional, cell-based
WM793 [17] = assay: Induction of apoptosis in human WM793 cells assessed as increase in caspase -3 activity at IC50 concentration after 24 hrs by Alexa Fluor 647 antibody based flow cytometric analysis; type: functional, cell-based
MUGMel1 [18] = assay: Induction of apoptosis in human MUGMel1 cells assessed as effect on BAX protein expression at IC50 concentration after 24 hrs by Western blot analysis; type: functional, cell-based
SBcl2 [19] = assay: Induction of apoptosis in human SBcl2 cells assessed as increase in caspase -3 activity at IC50 concentration after 24 hrs by Alexa Fluor 647 antibody based flow cytometric analysis; type: functional, cell-based
WM164 [20] = assay: Induction of apoptosis in human WM164 cells assessed as late apoptotic cells at IC50 concentration after 6 hrs by Annexin V/SYTOX Green based flow cytometric analysis (reference value: 1.41%); type: functional
SBcl2 [21] = assay: Induction of apoptosis in human SBcl2 cells assessed as necrotic cells at IC50 concentration after 6 hrs by Annexin V/SYTOX Green based flow cytometric analysis (reference value: 0.17%); type: functional
WM164 [22] = assay: Induction of apoptosis in human WM164 cells assessed as necrotic cells at IC50 concentration after 6 hrs by Annexin V/SYTOX Green based flow cytometric analysis (reference value: 0.81%); type: functional
MUGMel1 [23] = assay: Cytotoxicity against human MUGMel1 cells assessed as reduction in cell viability after 72 hrs by EZ4U reagent based spectrophotometric method; type: functional; details: MUGMel1, 72 h
SBcl2 [24] = assay: Induction of apoptosis in human SBcl2 cells assessed as early apoptotic cells at IC50 concentration after 6 hrs by Annexin V/SYTOX Green based flow cytometric analysis (reference value: 3.77%); type: functional
MUGMel2 [25] = assay: Induction of apoptosis in human MUGMel2 cells assessed as effect on BAD mRNA expression at IC50 concentration after 6 to 24 hrs by RT-qPCR analysis; type: functional, cell-based
WM793 [26] = assay: Cytotoxicity against human WM793 cells harboring BRAF V600E mutant assessed as reduction in cell viability after 24 hrs by EZ4U reagent based spectrophotometric method; type: functional; details: WM793, 24 h
SBcl2 [27] = assay: Induction of apoptosis in human SBcl2 cells assessed as effect on BAX protein expression at IC50 concentration after 24 hrs by Western blot analysis; type: functional, cell-based
WM164 [28] = assay: Cytotoxicity against human WM164 cells harboring BRAF V600E mutant assessed as reduction in cell viability after 24 hrs by EZ4U reagent based spectrophotometric method; type: functional; details: WM164, 24 h
MUGMel2 [29] = assay: Cytotoxicity against human MUGMel2 cells harboring NRAS pQ61K mutant assessed as reduction in cell viability after 48 hrs by EZ4U reagent based spectrophotometric method; type: functional; details: MUGMel2, 48 h
WM164 [30] = assay: Induction of apoptosis in human WM164 cells treated with scrambled si-RNA assessed as up regulation of NOXA protein expression at IC50 concentration after 24 hrs by Western blot analysis; type: functional, cell-based
WM793 [31] = assay: Induction of apoptosis in human WM793 cells assessed as viable cells at IC50 concentration after 24 hrs by Annexin V/SYTOX Green based flow cytometric analysis (reference value: 96.52%); type: functional
SBcl2 [32] = assay: Induction of apoptosis in human SBcl2 cells assessed as up regulation of NOXA protein expression at IC50 concentration after 24 hrs by Western blot analysis; type: functional, cell-based
WM793 [33] = assay: Induction of apoptosis in human WM793 cells assessed as effect on BAD protein expression at IC50 concentration after 24 hrs by Western blot analysis; type: functional, cell-based
WM164 [34] = assay: Cytotoxicity against human WM164 cells harboring BRAF V600E mutant assessed as reduction in cell viability after 72 hrs by EZ4U reagent based spectrophotometric method; type: functional; details: WM164, 72 h
MUGMel1 [35] = assay: Induction of apoptosis in human MUGMel1 cells assessed as necrotic cells at IC50 concentration after 24 hrs by Annexin V/SYTOX Green based flow cytometric analysis (reference value: 0.42%); type: functional

SMILES: CC(C)=CC[C@@H](OC(=O)C=C(C)C)C1=CC(=O)c2c(O)ccc(O)c2C1=O [DIMETHYLACRYLSHIKONIN]
- Activity (WM793 [1]): 2.78%
- Activity (WM164 [2]): 0.52%
- Activity (WM793 [3]): inactive
- IC50 (MUGMel1 [4]): 1.1 µM
- Activity (WM164 [5]): Active
- Activity (SBcl2 [6]): inactive
- Activity (MUGMel1 [7]): 0.11%
- Activity (WM793 [8]): 5.72%
- Activity (SBcl2 [9]): inactive
- Activity (SBcl2 [10]): 77.12%
- IC50 (MUGMel2 [11]): 1.7 µM
- Activity (MUGMel2 [12]): Active
- Activity (SBcl2 [13]): inactive
- IC50 (WM793 [14]): 0.8 µM
- Activity (MUGMel1 [15]): inactive
- Activity (WM164 [16]): inactive
- Activity (WM793 [17]): Active
- Activity (MUGMel1 [18]): inactive
- Activity (SBcl2 [19]): Active
- Activity (WM164 [20]): 8.65%
- Activity (SBcl2 [21]): 0.06%
- Activity (WM164 [22]): 0.24%
- IC50 (MUGMel1 [23]): 1 µM
- Activity (SBcl2 [24]): 16.44%
- Activity (MUGMel2 [25]): inactive
- IC50 (WM793 [26]): 1.2 µM
- Activity (SBcl2 [27]): inactive
- IC50 (WM164 [28]): 3.8 µM
- IC50 (MUGMel2 [29]): 2.3 µM
- Activity (WM164 [30]): Active
- Activity (WM793 [31]): 83.29%
- Activity (SBcl2 [32]): Active
- Activity (WM793 [33]): inactive
- IC50 (WM164 [34]): 2.4 µM
- Activity (MUGMel1 [35]): 0.15%
